From patent US11467151B1, “Phosphorescence oxygen analyzer and uses thereof” (priority 2021, dated 2022) come the findings set out here.

For this experiment, the system named is striatal tissue. The experiment is described as follows: Striatal cellular respiration (oxygen consumption of striatal fragments, phosphorescence oxygen analyzer). The class given is cell-based, C57BL6 male mice. The following applies: for effect on striatal cellular respiration (in words): in vitro, viable striatal tissue; for time over which the inhibitory effects remained relatively stable: with glucose, repeated additions of toxin (FIG. 3B, FIG. 4B). How it is done: C57BL6 male mice (13 weeks old, about 20 g weight) were housed at 22° C. with 60% humidity and 12-h light-dark cycles. Rodent chow and filtered water were provided ad libitum. The study was approved from the UAE University Animal Research Ethics Committee (Ref. ERA-20196026). Diethyl ether was used for anesthesia.
The studied mice were not treated in any way prior to striatal tissue collection. The skin and skull were cut to expose the whole brain, which was then rapidly removed and placed in a freshly prepared Pd phosphor solution: Phosphate-buffered saline (PBS: 137 mM NaCl, 2.7 mM KCl, 4.3 mM Na2HPO4, and 1.4 mM KH2PO4, pH 7.4), 3.0 μM Pd phosphor, 0.5% fat-free albumin, with and without 5.0 mM glucose. The brain region that contained the striatum was dissected. The specimen weight was determined prior to placing it in the oxygen measuring vial that contained 2.0 mL of the Pd phosphor solution. A small portion of the specimen was stored at −80° C. for Western blot analysis.
For oxygen analysis, our previously described phosphorescence oxygen analyzer was used to monitor oxygen consumption at 25° C. in the studied striatal fragments. In reaction vials sealed from air, oxygen concentration decreased linearly with time (zero-order kinetics); the rate (k, in μM O2 min^−1) was thus the negative of d [O21/dt. The calibration reactions utilized glucose oxidase (D-glucose+O2→D-glucono-δ-lactone+H2O2) and […]. Dissolved oxygen in the solution was also depleted by the addition of glucose oxidase plus […]. Potassium cyanide (KCN, added from a stock prepared in dH2O immediately before use) inhibited respiration, confirming oxygen was consumed in cytochrome oxidase.

Turning to `C=C(C)[C@H]1Cc2c(ccc3c2O[C@@H]2COc4cc(OC)c(OC)cc4[C@@H]2C3=O)O1` [rotenone, Rotenone], the “effect on striatal cellular respiration (in words)” value is listed as “inhibited” and the “time over which the inhibitory effects remained relatively stable” value was “about 100 min”. Moreover, the “rate of respiration (k) in the presence of rotenone” value (10 μM rotenone, Pd phosphor solution with 5.0 mM glucose, 25° C., mean±SD, n=5, without toxin 0.141 (n=7), P=0.073) came to 0.092±0.022 μM O2 min^−1 mg^−1.
Consider `C[n+]1ccc(-c2ccccc2)cc1.[I-]` [MPP+, 1-Methyl-4-phenylpyridinium iodide], for which the “effect on striatal cellular respiration (in words)” value is “inhibited” and the “time over which the inhibitory effects remained relatively stable” value is “about 300 min”. Also, where the note is “1.25 mM MPP+, Pd phosphor solution with 5.0 mM glucose, 25° C., n=3, p=0.048”, the “rate of respiration (k) in the presence of MPP+” value came to 0.077±0.006 μM O2 min^−1 mg^−1.
